Molecular target: T1, human TREM2 (Homo sapiens, UniProt Q9NZC2)
T1 construct: expressed in transfected cells; host or cells: HEK293T (HEK293T-hTREM2 cells)
Assay: TREM2 agonist potency by cellular phosphorylation of Spleen Tyrosine Kinase (Syk), AlphaLisa, HEK293T-hTREM2 cells
Type: cell-based
Details: hTREM2 EC50 Data (HEK293 Cells); Syk phosphorylation, AlphaLisa; read-out: hTREM2 EC50
Method in brief: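 HEK293T cells co-expressing human TREM2 and DAP12, plated 20–24 h before use. Compounds applied 45 min at room temperature in assay buffer, then cells lysed and phospho-Syk quantified by AlphaLisa. Percent activation from a standard curve; EC50 from a four-parameter variable-slope fit.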

T1 sequence (Q9NZC2 19-230): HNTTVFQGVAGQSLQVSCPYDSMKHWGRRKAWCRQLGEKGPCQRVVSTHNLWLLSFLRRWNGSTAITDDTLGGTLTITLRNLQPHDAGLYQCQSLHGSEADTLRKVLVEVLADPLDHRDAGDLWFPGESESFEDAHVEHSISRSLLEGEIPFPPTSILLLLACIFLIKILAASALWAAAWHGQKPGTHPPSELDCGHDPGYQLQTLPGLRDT
T1 sequence (O43914 22-113 partner): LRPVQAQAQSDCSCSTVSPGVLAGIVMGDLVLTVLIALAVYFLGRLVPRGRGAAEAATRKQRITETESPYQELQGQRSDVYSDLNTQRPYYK

SMILES | EC50
Cc1nc2nc(N3C[C@@H](C)O[C@@H](c4ccc(=O)n(N)c4)C3)nc(C34CC(C(F)(F)F)(C3)C4)c2nc1C1COC1 [Example 185, 1-amino-5-[(2S,6R)-6-methyl-4-[7-methyl-6-(oxetan-3-yl)-4-[3-(trifluoromethyl)-1-bicyclo[1.1.1]pentanyl]pteridin-2-yl]morpholin-2-yl]pyridin-2-one] | 100 to 500 nM
Cc1nc2nc(N3C[C@@H](C)O[C@@H](c4ccc(=O)n(C)c4)C3)nc(C34CC(C(N)=O)(C3)C4)c2nc1C [Example 204, 3-[6,7-dimethyl-2-[(2R,6S)-2-methyl-6-(1-methyl-6-oxo-3-pyridyl)morpholin-4-yl]pteridin-4-yl]bicyclo[1.1.1]pentane-1-carboxamide] | > 500 nM
CN(C)c1nc2nc(C3CCOC(c4ccc(=O)n(C)c4)C3)nc(-c3ccc(F)cc3F)c2s1 (stereo not shown) [Example 15] | < 100 nM
C=CC(=O)Nn1cc([C@H]2C[C@@H](c3nc(C45CC(C(F)(F)F)(C4)C5)c4nc(C)c(C)nc4n3)CCO2)ccc1=O [Example 213, N-[5-[(2R,4S)-4-[6,7-dimethyl-4-[3-(trifluoromethyl)-1-bicyclo[1.1.1]pentanyl]pteridin-2-yl]tetrahydropyran-2-yl]-2-oxo-1-pyridyl]prop-2-enamide] | < 100 nM
[2H]C([2H])([2H])c1nc2nc(N3C[C@@H](C)O[C@@H](c4ccc(=O)n(C5CC5)c4)C3)nc(C34CC(C(F)(F)F)(C3)C4)c2nc1C([2H])([2H])[2H] [Example 182, 5-[(2S,6R)-4-[6,7-bis(methyl-d3)-4-[3-(trifluoromethyl)-1-bicyclo[1.1.1]pentan-1-yl]pteridin-2-yl]-6-methyl-morpholin-2-yl]-1-cyclopropylpyridin-2(1H)-one] | < 100 nM
Cc1nc2nc([C@H]3CCO[C@@H](c4ccc(=O)n(N5CC6C(C5)C6(F)F)c4)C3)nc(C34CC(C(F)(F)F)(C3)C4)c2nc1C (stereo partly drawn) [Example 215, 1-(6,6-difluoro-3-azabicyclo[3.1.0]hexan-3-yl)-5-[(2R,4S)-4-[6,7-dimethyl-4-[3-(trifluoromethyl)-1-bicyclo[1.1.1]pentanyl]pteridin-2-yl]tetrahydropyran-2-yl]pyridin-2-one] | < 100 nM
Cc1nc2nc([C@H]3CCO[C@@H](c4ccc(=O)n(C)c4)C3)nc([C@H]3CC[C@H](F)CC3)c2nc1C [Example 42, 5-((2R,4S)-4-(4-((1r,4S)-4-fluorocyclohexyl)-6,7-dimethyl-pteridin-2-yl)tetrahydro-2H-pyran-2-yl)-1-methylpyridin-2(1H)-one] | < 100 nM
Cc1nc2nc([C@H]3CCO[C@@H](c4ccc(=O)n(-c5csc(C6CC6)c5)c4)C3)nc(C34CC(C(F)(F)F)(C3)C4)c2nc1C [Example 112] | < 100 nM
Cc1nc2nc(N3C[C@@H](C)O[C@@H](c4ccc(=O)[nH]c4)C3)nc(C34CC(C(F)(F)F)(C3)C4)c2nc1C1COC1 [Example 195, 5-[(2S,6R)-6-methyl-4-[7-methyl-6-(oxetan-3-yl)-4-[3-(trifluoromethyl)-1-bicyclo[1.1.1]pentanyl]pteridin-2-yl]morpholin-2-yl]-1H-pyridin-2-one] | < 100 nM
Cc1nc2nc(N3C[C@@H](C)O[C@@H](c4ccc(=O)n(N)c4)C3)nc(C34CC(C(F)(F)F)(C3)C4)c2nc1C [Example 184, 1-amino-5-[(2S,6R)-4-[6,7-dimethyl-4-[3-(trifluoromethyl)-1-bicyclo[1.1.1]pentanyl]pteridin-2-yl]-6-methyl-morpholin-2-yl]pyridin-2-one] | < 100 nM
Cc1nc2nc(N3C[C@@H](C)O[C@@H](c4ccc(=O)n(C5CC5)c4)C3)nc(C34CC(C(F)(F)F)(C3)C4)c2nc1C1COC1 [Example 183, 1-cyclopropyl-5-((2S,6R)-6-methyl-4-(7-methyl-6-(oxetan-3-yl)-4-(3-(trifluoromethyl)bicyclo[1.1.1]pentan-1-yl)pteridin-2-yl)morpholin-2-yl)pyridin-2(1H)-one] | < 100 nM
Cc1nc2nc([C@@H]3CCO[C@H](c4ccc(=O)n(C)c4)C3)nc(-c3cc(F)c(C(F)(F)F)cc3F)c2nc1C [Example 349] | > 500 nM
Cc1nc2nc([C@H]3CCO[C@@H](c4ccc(=O)[nH]c4)C3)nc(C34CC(C(F)(F)F)(C3)C4)c2nc1C(F)(F)F [Example 355] | < 100 nM
COc1nc2c(C34CC(C(F)(F)F)(C3)C4)nc([C@H]3CCO[C@@H](c4ccc(=O)n(C5CC5)c4)C3)nc2nc1C [Example 142, 1-cyclopropyl-5-[(2R,4S)-4-[6-methoxy-7-methyl-4-[3-(trifluoromethyl)-1-bicyclo-[1.1.1]pentanyl]pteridin-2-yl]tetrahydropyran-2-yl]pyridin-2-one] | < 100 nM
Cc1nc2nc([C@H]3CCO[C@@H](c4ccc(=O)n(C)c4)C3)nc(-c3ccc(C(F)(F)F)cc3F)c2nc1C [Example 4, 1-methyl-5-[(2R,4S)-4-[4-[2-fluoro-4-(trifluoro-methyl)phenyl]-6,7-dimethyl-pteridin-2-yl]tetrahydropyran-2-yl]pyridin-2-one] | < 100 nM
[2H]C([2H])([2H])n1cc([C@H]2CN(c3nc(C45CC(C(F)(F)F)(C4)C5)c4nc(C)c(C)nc4n3)C[C@@H](C)O2)ccc1=O [Example 354] | < 100 nM
COc1nc2c(C34CC(C(F)(F)F)(C3)C4)nc([C@H]3CCO[C@@H](c4ccc(=O)n(-c5csc(C)n5)c4)C3)nc2nc1C [Example 153, 5-((2R,4S)-4-(6-methoxy-7-methyl-4-(3-(trifluoromethyl)-bicyclo[1.1.1]pentan-1-yl)pteridin-2-yl)tetrahydro-2H-pyran-2-yl)-1-(2-methylthiazol-4-yl)pyridin-2(1H)-one] | < 100 nM
Cc1nc2nc([C@@H]3CCO[C@@H](c4ccc(=O)n(C)c4)C3)nc(-c3cc(F)c(C(F)(F)F)cc3F)c2nc1C [Example 348] | > 500 nM

Second part, the molecule after the results:

EC50 | SMILES
< 100 nM | CNn1cc([C@H]2C[C@@H](c3nc(C45CC(C(F)(F)F)(C4)C5)c4cc(C(F)(F)F)c(C)nc4n3)CCO2)ccc1=O [Example 338, 1-(methylamino)-5-((2R,4S)-4-(7-methyl-6-(trifluoromethyl)-4-(3-(trifluoromethyl)bicyclo-[1.1.1]pentan-1-yl)pyrido[2,3-d]pyrimidin-2-yl)tetrahydro-2H-pyran-2-yl)pyridin-2 (1H)-one]
< 100 nM | Cc1cc2c(C34CC(C(F)(F)F)(C3)C4)nc([C@H]3CCO[C@@H](c4ccc(=O)n(C)c4)C3)nc2nc1C [Example 324]
< 100 nM | COc1nc2c(C34CC(C(F)(F)F)(C3)C4)nc([C@H]3CCO[C@@H](c4ccc(=O)n(C)c4)C3)nc2nc1C [Example 140, 5-[(2R,4S)-4-[6-methoxy-7-methyl-4-[3-(trifluoromethyl)-1-bicyclo[1.1.1]pentanyl]pteridin-2-yl]tetrahydropyran-2-yl]-1-methyl-pyridin-2-one]
< 100 nM | Cc1nc2nc([C@H]3CCO[C@@H](c4ccc(=O)n(N(C)C)c4)C3)nc(C34CC(C(F)(F)F)(C3)C4)c2cc1C(F)(F)F [Example 336, 1-(dimethylamino)-5-((2R,4S)-4-(7-methyl-6-(trifluoromethyl)-4-(3-(trifluoromethyl)bicyclo-[1.1.1]pentan-1-yl)pyrido[2,3-d]pyrimidin-2-yl)tetrahydro-2H-pyran-2-yl)pyridin-2 (1H)-one]
< 100 nM | [2H]C([2H])([2H])n1cc([C@H]2C[C@@H](c3nc(C45CC(C(F)(F)F)(C4)C5)c4nc(C)c(C)nc4n3)CCO2)ccc1=O [Example 36]
< 100 nM | Cc1nc2nc([C@@H]3CCO[C@H](c4ccc(=O)n(C)c4)C3)nc(C34CC(C(F)(F)F)(C3)C4)c2nc1C [Example 26, 5-[(2S,4R)-4-[6,7-dimethyl-4-[3-(trifluoromethyl)-1-bicyclo[1.1.1]-pentanyl]pteridin-2-yl]tetrahydropyran-2-yl]-1-methyl-pyridin-2-one]
< 100 nM | [2H]C([2H])([2H])n1cc([C@H]2C[C@@H](c3nc(C45CC(C(F)(F)F)(C4)C5)c4cc(C(F)(F)F)c(C)nc4n3)CCO2)ccc1=O [Example 334, 1-(methyl-d3)-5-((2R,4S)-4-(7-methyl-6-(trifluoromethyl)-4-(3-(trifluoromethyl)bicyclo[1.1.1]pentan-1-yl)pyrido[2,3-d]pyrimidin-2-yl)tetrahydro-2H-pyran-2-yl)pyridin-2(1H)-one]
< 100 nM | Cc1nc2nc([C@H]3CCO[C@@H](c4cnc(=O)n(C)c4)C3)nc(C34CC(C(F)(F)F)(C3)C4)c2nc1C [Example 161]
< 100 nM | Cc1nc2nc(C3CCOC(c4ccc(=O)n(C)c4)C3)nc(C34CC(C(F)(F)F)(C3)C4)c2nc1C (stereo not shown) [Example 27, 5-(4-(6,7-dimethyl-4-(3-(trifluoromethyl)-bicyclo[1.1.1]pentan-1-yl)pteridin-2-yl)tetrahydro-2H-pyran-2-yl)-1-methylpyridin-2(1H)-one]
< 100 nM | Cc1nc2nc([C@@H]3CCO[C@H](c4ccc(=O)n(C56CC(C5)C6)c4)C3)nc(C34CC(C(F)(F)F)(C3)C4)c2nc1C [Example 121, 1-(1-bicyclo[1.1.1]pentanyl)-5-[(2S,4R)-4-[6,7-dimethyl-4-[3-(trifluoromethyl)-1-bicyclo[1.1.1]-pentanyl]pteridin-2-yl]tetrahydropyran-2-yl]pyridine-2-one]
> 500 nM | CN(C)c1nc2c(C34CC(C(F)(F)F)(C3)C4)nc([C@H]3CCO[C@@H](c4ccc(=O)n(C)c4)C3)nc2n1C [Example 188]
< 100 nM | Cc1nc2nc([C@H]3CCO[C@@H](c4ccc(=O)n(-c5cnco5)c4)C3)nc(C34CC(C(F)(F)F)(C3)C4)c2nc1C [Example 116, 5-((2R,4S)-4-(6,7-dimethyl-4-(3-(trifluoromethyl)-bicyclo-[1.1.1]pentan-1-yl)pteridin-2-yl)tetrahydro-2H-pyran-2-yl)-1-(oxazol-5-yl)pyridin-2(1H)-one]
< 100 nM | Cc1nc2nc([C@H]3CCO[C@H](c4cnc(=O)n(C)c4)C3)nc(C34CC(C(F)(F)F)(C3)C4)c2nc1C [Example 163, 1-methyl-5-[(2S,4S)-4-[6,7-dimethyl-4-[3-(trifluoromethyl)-1-bicyclo[1.1.1]pentanyl]pteridin-2-yl]tetrahydropyran-2-yl]pyrimidin-2-one]

— patent US20260356841A1, “HETEROCYCLIC PYRIDINONE COMPOUNDS AS TRIGGERING RECEPTOR EXPRESSED ON MYELOID CELLS 2 AGONISTS AND METHODS OF USE” (Vigil Neuroscience, Inc., priority 2023, published 2026)
